Results reported in publication PMC6599079 (Nature Communications, 2019).
Like-named read-outs stand apart in the source and are kept apart here. Square brackets hold non-standard residues; d marks the D form. Ends that are not written are not given here. Met(O) = CS(=O)CC[C@H](N)C(=O)O

Tests used:
H-2K^b = biological target: T1, H-2K^b (Mus musculus, UniProt P01901); experiment: biochemical; type: binding
T1 sequence (P01901 22-369): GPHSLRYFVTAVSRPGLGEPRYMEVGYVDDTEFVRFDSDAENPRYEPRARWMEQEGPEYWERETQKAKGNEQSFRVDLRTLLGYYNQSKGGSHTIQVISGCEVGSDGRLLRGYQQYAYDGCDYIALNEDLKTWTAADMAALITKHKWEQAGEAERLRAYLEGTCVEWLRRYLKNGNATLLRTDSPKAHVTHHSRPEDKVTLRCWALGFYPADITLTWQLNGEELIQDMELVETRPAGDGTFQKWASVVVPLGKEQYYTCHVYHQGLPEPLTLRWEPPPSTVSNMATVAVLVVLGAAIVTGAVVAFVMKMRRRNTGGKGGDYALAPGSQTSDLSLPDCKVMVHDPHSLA
T1 sequence (P01887 21-119 partner): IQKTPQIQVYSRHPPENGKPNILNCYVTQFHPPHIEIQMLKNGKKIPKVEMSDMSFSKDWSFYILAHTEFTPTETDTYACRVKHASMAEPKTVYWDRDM

H-2D^b = biological target: T2, H-2D^b (Mus musculus, UniProt P01899); experiment: biochemical; type: binding
T2 sequence (P01899 25-362): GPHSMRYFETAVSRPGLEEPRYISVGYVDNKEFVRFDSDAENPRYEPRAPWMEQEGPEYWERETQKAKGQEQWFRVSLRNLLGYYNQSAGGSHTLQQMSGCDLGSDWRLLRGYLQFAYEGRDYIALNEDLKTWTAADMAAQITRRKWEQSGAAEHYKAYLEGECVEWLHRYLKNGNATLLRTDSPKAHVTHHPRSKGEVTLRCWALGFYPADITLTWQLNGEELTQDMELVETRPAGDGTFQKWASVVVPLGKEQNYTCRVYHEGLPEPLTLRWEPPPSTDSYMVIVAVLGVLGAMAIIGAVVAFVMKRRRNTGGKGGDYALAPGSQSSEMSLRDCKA
T2 sequence (P01887 21-119 partner): T1 sequence (P01887 21-119 partner)

splenic CD8^+ T cells = type: in vivo, C57BL/6 mice; conditions: for IFNg#: spleen; for CTL response, ICS: file clean_CTLresponse_ICS_new, tissue not given
[1] = biological target: H-2b MHC class I (allele not given); experiment: Classical competition assay of peptide binding to purified MHC; restricting allele not printed in the epitope label of this file; parameters: species or system mouse; conditions: epitope label without allele; file clean_file9_IC50; unit inferred
[2] = Measured IC50 of each peptide, H-2K^b
[3] = Measured IC50 of each peptide, H-2D^b
[4] = epitopes labelled Kb, file clean_file9_IC50, unit inferred, read-out: IC50
[5] = 1st EXP, number of IFNg+ CD8 cells = IFNg% (w/o background) x CD8# 5103400, replicate Mouse 2
[6] = 1st EXP, number of IFNg+ CD8 cells = IFNg% (w/o background) x CD8# 5464800, replicate Mouse 3
[7] = 1st EXP, number of IFNg+ CD8 cells = IFNg% (w/o background) x CD8# 5668200, replicate Mouse 4
[8] = 1st EXP, number of IFNg+ CD8 cells = IFNg% (w/o background) x CD8# 5724000, replicate Mouse 5
[9] = 1st EXP, number of IFNg+ CD8 cells = IFNg% (w/o background) x CD8# 6077000, replicate Mouse 1
[10] = 2nd EXP, number of IFNg+ CD8 cells per spleen (CD8# 2541000), Mouse 5
[11] = 2nd EXP, number of IFNg+ CD8 cells per spleen (CD8# 2956300), Mouse 4
[12] = 2nd EXP, number of IFNg+ CD8 cells per spleen (CD8# 3816800), Mouse 1
[13] = 2nd EXP, number of IFNg+ CD8 cells per spleen (CD8# 4765200), Mouse 3
[14] = 2nd EXP, number of IFNg+ CD8 cells per spleen (CD8# 5219500), Mouse 2
[15] = 2nd EXP, number of IFNg+ CD8 cells per spleen (CD8# 5392600), Mouse 6

SFQDILLRM [NS2_8–16] was tested, and the IC50 (H-2K^b; [2]) was 185 nM and the IC50 (H-2D^b; [3]) was 10700 nM.

In the case of VYIEVLHL [PB2_227–234], the IC50 (H-2K^b; [2]) is reported as 2.8 nM and the IC50 (H-2D^b; [3]) is reported as 20900 nM.

In the case of SSYRRPVGI [PB1_703–711], the IC50 (H-2K^b; [2]) is reported as 1.9 nM and the IC50 (H-2D^b; [3]) is reported as 29000 nM.

In the case of `CC[C@H](C)[C@H](NC(=O)[C@H](CC(N)=O)NC(=O)[C@@H](N)CCSC)C(=O)N[C@@H](CCC(N)=O)C(=O)N[C@@H](Cc1ccccc1)C(=O)N[C@H](C(=O)N[C@@H](C)C(=O)N[C@H](C(=O)O)C(C)C)[C@@H](C)O` [HA402–409], the IC50 (H-2K^b; [2]) is reported as 3 nM and the IC50 (H-2D^b; [3]) is reported as 6180 nM.

For YQNIHPVTI [HA308–316], the IC50 (H-2K^b; [2]) was 1140 nM and the IC50 (H-2D^b; [3]) was 1970 nM.

VYIEVLHL [PB2-227-234Kb] showed an IC50 (H-2K^b; [4]) of 2.77 nM.

SSLPYQNI [HA304–311] was tested, and the IC50 (H-2K^b; [2]) was 4.7 nM and the IC50 (H-2D^b; [3]) was > 40000 nM.

In the case of SGPDNGAVAV [NA181–190], the IC50 (H-2K^b; [2]) is reported as 262 nM and the IC50 (H-2D^b; [3]) is reported as 65 nM.

IGRFYIQM [NP36–43] gave an IC50 (H-2K^b; [2]) of 1.9 nM and an IC50 (H-2D^b; [3]) of 3300 nM.

With `CSCC[C@H](NC(=O)[C@@H](NC(=O)[C@H](CCC(=O)O)NC(=O)[C@H](CCSC)NC(=O)[C@H](CC(N)=O)NC(=O)[C@H](CCC(=O)O)NC(=O)[C@H](CC(N)=O)NC(=O)[C@H](CO)NC(=O)[C@H](C)N)[C@@H](C)O)C(=O)O` [NP366–374] the IC50 (H-2K^b; [2]) was > 40000 nM and the IC50 (H-2D^b; [3]) was 18 nM.

AGLKNDLLENL [M1_227–237] was tested, and the IC50 (H-2K^b; [2]) was 3310 nM and the IC50 (H-2D^b; [3]) was 5280 nM.

Work on SGPDNGAVAVL [NA181–191] yielded an IC50 (H-2K^b; [2]) of 585 nM and an IC50 (H-2D^b; [3]) of 64 nM.

In the case of MGLIYNRM [M1_128–135], the IC50 (H-2K^b; [2]) is reported as 92.6 nM and the IC50 (H-2D^b; [3]) is reported as > 40000 nM.

SSLENFRAYV [PA224–233] was tested, and the IC50 (H-2K^b; [2]) was 38 nM and the IC50 (H-2D^b; [3]) was 0.16 nM.

VTVTHSVNL [HA41–49] showed an IC50 (H-2K^b; [2]) of 7.9 nM and an IC50 (H-2D^b; [3]) of 872 nM.

19 (CFKFDHL) [compound 19] was tested, and the “IFNg#” value (splenic CD8^+ T cells; [5]) was 34310.2, the “IFNg#” value (splenic CD8^+ T cells; [6]) was 27968.8 and the “IFNg#” value (splenic CD8^+ T cells; [7]) was 21326.6. For the same compound, the “IFNg#” value (splenic CD8^+ T cells; [8]) was 46581.9, the “IFNg#” value (splenic CD8^+ T cells; [9]) was 28197.3 and the “IFNg#” value (splenic CD8^+ T cells; [10]) was 17050.1. For the same compound, the “IFNg#” value (splenic CD8^+ T cells; [11]) was 2143.61, the “IFNg#” value (splenic CD8^+ T cells; [12]) was 22289 and the “IFNg#” value (splenic CD8^+ T cells; [13]) was 7728.2. The “IFNg#” value (splenic CD8^+ T cells; [14]) was 8361.64 and the “IFNg#” value (splenic CD8^+ T cells; [15]) was 5535.5.

Compound NGITNKVNTVI [HA389–399] has an IC50 (H-2K^b; [2]) of 22000 nM and an IC50 (H-2D^b; [3]) of 118 nM.

In the case of RTFSFQLI [NS2_114–121], the IC50 (H-2K^b; [2]) is reported as 4.7 nM and the IC50 (H-2D^b; [3]) is reported as > 40000 nM.

With KNMEYDAV [PB1_653–660] the IC50 (H-2K^b; [2]) was 156 nM and the IC50 (H-2D^b; [3]) was > 40000 nM.

With LSLRNPILV [PB1-F2_62–70] the IC50 (H-2K^b; [2]) was 12400 nM and the IC50 (H-2D^b; [3]) was 18 nM.

Compound SSLENFRAYV [PA-224-233Db] has an IC50 (H-2D^b; epitopes labelled Db, file clean_file9_IC50, unit inferred, read-out: IC50) of 0.155 nM.

In the case of SQLKNNAKEI [HA467–476], the IC50 (H-2K^b; [2]) is reported as > 40000 nM and the IC50 (H-2D^b; [3]) is reported as 173 nM.

For HA-41-49 (VTVTHSVNL), the “CTL response, ICS” value (splenic CD8^+ T cells; Mouse1) was 14900.8, the “CTL response, ICS” value (splenic CD8^+ T cells; Mouse2) was 4695.13 and the “CTL response, ICS” value (splenic CD8^+ T cells; Mouse3) was 8913.09. For the same compound, the “CTL response, ICS” value (splenic CD8^+ T cells; Mouse4) was 22267.5, the “CTL response, ICS” value (splenic CD8^+ T cells; Mouse5) was 32844.3 and the “CTL response, ICS” value (splenic CD8^+ T cells; Mouse11) was 2884.36. The “CTL response, ICS” value (splenic CD8^+ T cells; Mouse12) was 3836.33, the “CTL response, ICS” value (splenic CD8^+ T cells; Mouse13) was 2696.15 and the “CTL response, ICS” value (splenic CD8^+ T cells; Mouse14) was 546.324. The “CTL response, ICS” value (splenic CD8^+ T cells; Mouse15) was 0, the “CTL response, ICS” value (splenic CD8^+ T cells; Mouse16) was 865.512 and the IC50 [1] was 872 nM.

In the case of 2 (TLTSANHA[Met(O)]I) [compound 2], the “IFNg#” value (splenic CD8^+ T cells; [5]) is reported as 1002.82, the “IFNg#” value (splenic CD8^+ T cells; [6]) is reported as 6300.91 and the “IFNg#” value (splenic CD8^+ T cells; [7]) is reported as 49270.8. For the same compound, the “IFNg#” value (splenic CD8^+ T cells; [8]) was 453.913, the “IFNg#” value (splenic CD8^+ T cells; [9]) was 8544.26 and the “IFNg#” value (splenic CD8^+ T cells; [10]) was -2541. For the same compound, the “IFNg#” value (splenic CD8^+ T cells; [11]) was 765.09, the “IFNg#” value (splenic CD8^+ T cells; [12]) was 334.733 and the “IFNg#” value (splenic CD8^+ T cells; [13]) was 3334.69. For the same compound, the “IFNg#” value (splenic CD8^+ T cells; [14]) was 2635.85 and the “IFNg#” value (splenic CD8^+ T cells; [15]) was -650.348.

SSYRRPVGI [PB1-703-711Kb] gave an IC50 (H-2K^b; [4]) of 1.94 nM.
